Measurements as given in patent US20260167632A1, “NICOTINAMIDE DERIVATIVES FOR USE IN TREATING DISORDERS ASSOCIATED WITH KCNK13 ACTIVITY” (Cerevance, Inc., priority 2022, published 2026).

These molecules were tested against T1, human KCNK13 (Homo sapiens, UniProt Q9HB14) (assay: KCNK13 antagonist activity, thallium flux FLIPR assay in HEK 293 cells stably expressing human KCNK13). Settings: HEK 293 cells stably expressing human KCNK13, Tl+ sensitive dye, compound 15 min before thallium sulfate, ten point curves; read-out: hKCNK13 IC50.
T1 construct: expressed in transfected cells
T1 sequence (Q9HB14 1-408): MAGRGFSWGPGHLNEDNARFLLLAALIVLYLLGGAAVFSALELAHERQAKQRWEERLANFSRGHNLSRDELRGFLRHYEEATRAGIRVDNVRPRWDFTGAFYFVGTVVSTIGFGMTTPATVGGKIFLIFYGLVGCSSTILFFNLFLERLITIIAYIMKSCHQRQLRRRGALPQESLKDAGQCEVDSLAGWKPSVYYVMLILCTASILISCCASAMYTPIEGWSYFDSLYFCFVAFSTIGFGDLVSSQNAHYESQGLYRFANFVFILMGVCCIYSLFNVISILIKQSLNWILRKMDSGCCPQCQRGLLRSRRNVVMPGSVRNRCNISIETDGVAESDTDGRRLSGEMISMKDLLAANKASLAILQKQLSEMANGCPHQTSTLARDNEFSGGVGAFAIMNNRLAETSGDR
Assay type: cell-based
Experimental: 4. Biological Efficacy of Compounds of the Invention
KCNK13 antagonist activity was determined by measuring changes in intracellular Thallium (Tl^+) concentrations using a Tl^+ sensitive fluorescent dye. The changes in fluorescent signal were monitored by Fluorescent Imaging Plate Reader (FLIPR™) technology available from Molecular Devices, LLC, US. KCNK13 mediated increases in intracellular Tl^+ concentration were readily detected by addition of a thallium sulfate Stimulus. 24 hours prior to the assay, human embryonic kidney 293 cells (HEK 293 cells) stably expressing human KCNK13 were seeded in cell culture medium in PDL coated black, clear-bottom 384-well plates (commercially available from Corning Inc., 356663) and grown overnight at 37° C., […]. On the day of the assay, cell culture media was removed and cells were loaded with potassium dye (commercially sold by Molecular Devices, LLC, US, R8222) for 1 hour at room temperature in the dark. Test compounds (at 10 point half log concentration response curves from 100 µM) were added to cells for 15 minutes prior to the addition of thallium sulfate to all wells. The IC50 values were determined from ten point concentration response curves. Curves were generated using the average of two wells for each data point.

SMILES	IC50
COc1ncc(Cl)cc1C(=O)N(C)C1CCc2ccc(C#N)cc21 (stereo not shown) [Example 2, 5-chloro-N-(6-cyano-2,3-dihydro-1H-inden-1-yl)-2-methoxy-N-methylnicotinamide]	≤ 1000 nM
COc1ncc(F)cc1C(=O)N1CCCCC1c1cccc(F)c1 (stereo not shown) [Example 4, (5-fluoro-2-methoxypyridin-3-yl)(2-(3-fluorophenyl)piperidin-1-yl)methanone]	≤ 1000 nM
COc1nc(C)ccc1C(=O)N(C)Cc1ccc(F)cc1F [Example 11, N-(2,4-difluorobenzyl)-2-methoxy-N,6-dimethylnicotinamide]	≤ 1000 nM
COc1ncccc1C(=O)N(C)Cc1cccc(F)c1 [Example 32, N-(3-fluorobenzyl)-2-methoxy-N-methylnicotinamide]	≤ 1000 nM
COc1ncc(F)cc1C(=O)N(C)Cc1cccc(F)c1F [Example 38, N-(2,3-difluorobenzyl)-5-fluoro-2-methoxy-N-methylnicotinamide]	≤ 500 nM
COc1ncc(F)cc1C(=O)N(C)C1COc2cc(F)ccc21 (stereo not shown) [Example 42, 5-fluoro-N-(6-fluoro-2,3-dihydrobenzofuran-3-yl)-2-methoxy-N-methylnicotinamide]	≤ 1000 nM
COc1ncc(Cl)cc1C(=O)N(C)C1CCOc2cc(F)ccc21 (stereo not shown) [Example 43, 5-chloro-N-(7-fluorochroman-4-yl)-2-methoxy-N-methylnicotinamide]	≤ 1000 nM
CCN(Cc1ccccc1)C(=O)c1cc(Cl)cnc1OC [Example 47, N-benzyl-5-chloro-N-ethyl-2-methoxynicotinamide]	≤ 1000 nM
CCN(Cc1ccccc1F)C(=O)c1cc(Cl)cnc1OC [Example 48, 5-chloro-N-ethyl-N-(2-fluorobenzyl)-2-methoxynicotinamide]	≤ 500 nM
CCN(Cc1cccc(F)c1)C(=O)c1cc(Cl)cnc1OC [Example 49, 5-chloro-N-ethyl-N-(3-fluorobenzyl)-2-methoxynicotinamide]	≤ 1000 nM
COc1ncc(C)cc1S(=O)(=O)N1CCOc2ccc(F)cc2C1 [Example 53, 7-fluoro-4-((2-methoxy-5-methylpyridin-3-yl)sulfonyl)-2,3,4,5-tetrahydrobenzo[f][1,4]oxazepine]	≤ 500 nM
COc1ncc(Cl)cc1S(=O)(=O)N1CCOc2ccc(F)cc2C1 [Example 54, 4-((5-chloro-2-methoxypyridin-3-yl)sulfonyl)-7-fluoro-2,3,4,5-tetrahydrobenzo[f][1,4]oxazepine]	≤ 500 nM
COc1ncccc1S(=O)(=O)N1CCOc2ccc(F)cc2C1 [Example 55, 7-fluoro-4-((2-methoxypyridin-3-yl)sulfonyl)-2,3,4,5-tetrahydrobenzo[f][1,4]oxazepine]	≤ 500 nM
COC(=O)c1ccc(F)cc1CN(C)C(=O)c1cc(F)cnc1OC [Example 56, methyl 4-fluoro-2-((5-fluoro-2-methoxy-N-methylnicotinamido)methyl)benzoate]	≤ 500 nM
COc1ncc(Cl)cc1C(=O)N(C)Cc1ccc(F)cc1C(F)(F)F [Example 57, 5-chloro-N-(4-fluoro-2-(trifluoromethyl)benzyl)-2-methoxy-N-methylnicotinamide]	≤ 1000 nM
COc1ncc(F)cc1C(=O)N(C)Cc1c(F)cc(F)cc1C#N [Example 61, N-(2-cyano-4,6-difluorobenzyl)-5-fluoro-2-methoxy-N-methylnicotinamide]	≤ 1000 nM
COc1nccc(C)c1C(=O)N(C)Cc1ccc(F)cc1F [Example 73, N-(2,4-difluorobenzyl)-2-methoxy-N,4-dimethylnicotinamide]	≤ 500 nM
CN(C(=O)c1cc(F)cnc1OC(F)F)C1COc2cc(F)ccc21 (stereo not shown) [Example 74, 2-(difluoromethoxy)-5-fluoro-N-(6-fluoro-2,3-dihydrobenzofuran-3-yl)-N-methylnicotinamide]	≤ 500 nM

Second part, the molecule after the results:

IC50	SMILES
≤ 200 nM	COc1ncc(F)cc1C(=O)N(C)C(C)c1ccc(F)cc1F (single isomer, unassigned) [Example 69, N-(1-(2,4-difluorophenyl)ethyl)-5-fluoro-2-methoxy-N-methylnicotinamide]
≤ 200 nM	CC(c1ccccc1F)N(C)C(=O)c1cc(F)cnc1OC(F)F (single isomer, unassigned) [Example 70, 2-(difluoromethoxy)-5-fluoro-N-(1-(2-fluorophenyl)ethyl)-N-methylnicotinamide]
≤ 100 nM	CC(c1ccccc1F)N(C)C(=O)c1cc(F)cnc1OC(F)F (single isomer, unassigned) [Example 71, 2-(difluoromethoxy)-5-fluoro-N-(1-(2-fluorophenyl)ethyl)-N-methylnicotinamide]
≤ 100 nM	CC(c1cccc(F)c1)N(C)C(=O)c1cc(Cl)cnc1OC(F)F (single isomer, unassigned) [Example 86, 5-chloro-2-(difluoromethoxy)-N-(1-(3-fluorophenyl)ethyl)-N-methylnicotinamide]
≤ 200 nM	CC(c1cccc(F)c1)N(C)C(=O)c1cc(Cl)cnc1OC(F)F (single isomer, unassigned) [Example 87, 5-chloro-2-(difluoromethoxy)-N-(1-(3-fluorophenyl)ethyl)-N-methylnicotinamide]
≤ 100 nM	CC(c1cccc(F)c1)N(C)C(=O)c1cc(F)cnc1OC(F)F (single isomer, unassigned) [Example 88, 2-(difluoromethoxy)-5-fluoro-N-(1-(3-fluorophenyl)ethyl)-N-methylnicotinamide]
≤ 200 nM	CC(c1cccc(F)c1)N(C)C(=O)c1cc(F)cnc1OC(F)F (single isomer, unassigned) [Example 89, 2-(difluoromethoxy)-5-fluoro-N-(1-(3-fluorophenyl)ethyl)-N-methylnicotinamide]
≤ 100 nM	COc1ncc(Cl)cc1C(=O)N(C)Cc1ccccc1 [Example 1, N-benzyl-5-chloro-2-methoxy-N-methylnicotinamide]
≤ 500 nM	COc1ncc(Cl)cc1C(=O)N(C)C1CCc2cccc(C#N)c21 (stereo not shown) [Example 3, 5-chloro-N-(7-cyano-2,3-dihydro-1H-inden-1-yl)-2-methoxy-N-methylnicotinamide]
≤ 500 nM	COc1ncccc1C(=O)N(C)Cc1ccccc1F [Example 33, N-(2-fluorobenzyl)-2-methoxy-N-methylnicotinamide]
≤ 500 nM	COc1ncc(F)cc1C(=O)N(C)C1(c2cccc(F)c2)CC1 [Example 34, 5-fluoro-N-(1-(3-fluorophenyl)cyclopropyl)-2-methoxy-N-methylnicotinamide]
≤ 500 nM	COc1ncc(F)cc1C(=O)N(C)C1COc2ccc(F)cc21 (stereo not shown) [Example 35, 5-fluoro-N-(5-fluoro-2,3-dihydrobenzofuran-3-yl)-2-methoxy-N-methylnicotinamide]
≤ 500 nM	COc1ncc(F)cc1C(=O)N(C)Cc1ccccc1C#N [Example 36, N-(2-cyanobenzyl)-5-fluoro-2-methoxy-N-methylnicotinamide]
≤ 200 nM	COc1ncc(F)cc1C(=O)N(C)Cc1ccccc1F [Example 37, 5-fluoro-N-(2-fluorobenzyl)-2-methoxy-N-methylnicotinamide]
≤ 200 nM	COc1ncc(Cl)cc1C(=O)N(C)Cc1cccc(F)c1F [Example 40, 5-chloro-N-(2,3-difluorobenzyl)-2-methoxy-N-methylnicotinamide]
≤ 200 nM	COc1ncc(Cl)cc1C(=O)N(C)Cc1cc(F)cc(F)c1 [Example 41, 5-chloro-N-(3,5-difluorobenzyl)-2-methoxy-N-methylnicotinamide]
≤ 200 nM	COc1ncc(Cl)cc1C(=O)N(C)Cc1cc(F)cc(Cl)c1 [Example 44, 5-chloro-N-(3-chloro-5-fluorobenzyl)-2-methoxy-N-methylnicotinamide]
≤ 200 nM	COc1ncc(F)cc1C(=O)N(C)Cc1cccc(F)c1 [Example 50, 5-fluoro-N-(3-fluorobenzyl)-2-methoxy-N-methylnicotinamide]
≤ 200 nM	COc1ncc(C)cc1S(=O)(=O)N1CCc2ccccc2C1 [Example 51, 2-((2-methoxy-5-methylpyridin-3-yl)sulfonyl)-1,2,3,4-tetrahydroisoquinoline]
≤ 200 nM	COc1ncc(Cl)cc1S(=O)(=O)N1CCc2ccccc2C1 [Example 52, 2-((5-chloro-2-methoxypyridin-3-yl)sulfonyl)-1,2,3,4-tetrahydroisoquinoline]
≤ 200 nM	COc1ncc(Cl)cc1C(=O)N(C)Cc1ccc(F)cc1C#N [Example 58, 5-chloro-N-(2-cyano-4-fluorobenzyl)-2-methoxy-N-methylnicotinamide]
≤ 200 nM	COc1ncc(C)cc1C(=O)N(C)Cc1ccc(F)cc1F [Example 72, N-(2,4-difluorobenzyl)-2-methoxy-N,5-dimethylnicotinamide]
